Assays:
[1] = Reduction of the solubility of synthetic apatite after treatment; settings: pH 5, consumption of lactic acid; comparison with untreated apatite
Experimental: The hydroxyacetonitrile diphosphonic acid of the invention effectively reduces the solubility of apatite by absorbing it on the tartar surface. To determine this property, the solubility of synthetic apatite after treatment with the hydroxyacetonitrile diphosphonic acid is determined by comparison with untreated apatite. To this end, a suspension of apatite is kept at pH 5 by neutralizing the hydroxyl ions passing into solution with lactic acid and determining the consumption of acid required for this purpose.

[2] = Inhibition of conversion of calcium hydrogen phosphate into hydroxyl apatite (protons released); settings: protons released in a calcium phosphate solution supersaturated at 60° C.
Experimental: A crucial step in the formation of tartar is the conversion of calcium hydrogen phosphate into hydroxyl apatite. […] To this end, the degree of inhibition of this conversion was measured by determining the protons released in a calcium phosphate solution supersaturated at 60° C. in accordance with the following equation: […]

[3] = Hampshire test (calcium complexing power); format: physicochemical; settings: pH 11; titrated with 0.2 molar calcium chloride until it remained cloudy; used as tetrasodium salt, converted for the pure diphosphonic acid
Experimental: The calcium complexing power was determined by the Hampshire test in which the hydroxyacetonitrile diphosphonic acid, to which Na2 CO3 has been added, was titrated with a 0.2 molar calcium chloride solution at pH 11 until it remained cloudy. Hydroxyacetonitrile diphosphonic acid was used in the form of its tetrasodium salt and the measured values obtained were converted for the pure diphosphonic acid.

SMILES	Reduction of the solubility of apatite [1] [%]	degree of inhibition of conversion of calcium hydrogen phosphate into hydroxyl apatite [2] [%]	calcium complexing power [3] [mg CaCO3 /g acid]
CC(O)(P(=O)(O)O)P(=O)(O)O	53		
N#CC(O)(P(=O)(O)O)P(=O)(O)O [Hydroxyacetonitrile diphosphonic acid, hydroxyacetonitrile diphosphonic acid]	65	91	520
O=P(O)(O)C(O)P(=O)(O)O [Hydroxymethane diphosphonic acid]		81	
O=P(O)(O)C(O)P(=O)(O)O [drawing 8]			130

— patent publication US4908138A (priority 1987, dated 1990)
